The text below walks through data of patent US8633232B2, “Compounds, compositions and methods of using same for modulating uric acid levels” (Ardea Biosciences, Inc., priority 2008, dated 2014).

SMILES strings stand for the structures. Counter-ions that a name gives are not always drawn.

Series [1] concerns healthy adult male human volunteers. Kind of series: In vivo uric acid lowering activity, multiple ascending dose placebo-controlled study. Here is the method: 16 healthy male individuals, aged 18-45 years inclusive, with a body mass index (BMI) within 18-30 kg/m^2 inclusive, having provided a written informed consent, non smokers for at least 6 months, not using any drug treatment for 2 weeks before screening (2 months for enzyme-inducing drugs) except occasional Acetaminophen. The individuals were confined at the clinical site beginning the day before dose administration until 72 hours after the final dose administration on Day 17 and returned for a follow-up visit on Day 21±1.
Matching placebo capsules were supplied as size 2 gelatin capsules. Individuals were randomized to receive the same number of placebo capsules as administered to the active individuals.
Capsules (active or placebo) were administered orally with 240 mL water 30 min after a standard breakfast (morning dose) and dinner (evening dose) for 14 days.
16 individuals (8 individuals [6 active and 2 placebo] per dose group). • a. Group 1: Placebo • b. Group 2: 300 mg (3×100-mg capsules) example 1 b.i.d. • c. Group 3: 500 mg (5×100-mg capsules) example 1 b.i.d.
Blood was collected from the individuals on days 0, 3, 7, 14 and at follow-up. Serum uric levels were measured using standard automated procedures. The results are shown in the table below (uric acid levels in μmol/L).

Series [2] addresses T1, hURAT1 Transporter (Homo sapiens, UniProt Q96S37).
T1 construct: Full-length human URAT1 gene (SLC22A12) was subcloned from plasmid pCMV6-XL5
T1 sequence (Q96S37 1-553): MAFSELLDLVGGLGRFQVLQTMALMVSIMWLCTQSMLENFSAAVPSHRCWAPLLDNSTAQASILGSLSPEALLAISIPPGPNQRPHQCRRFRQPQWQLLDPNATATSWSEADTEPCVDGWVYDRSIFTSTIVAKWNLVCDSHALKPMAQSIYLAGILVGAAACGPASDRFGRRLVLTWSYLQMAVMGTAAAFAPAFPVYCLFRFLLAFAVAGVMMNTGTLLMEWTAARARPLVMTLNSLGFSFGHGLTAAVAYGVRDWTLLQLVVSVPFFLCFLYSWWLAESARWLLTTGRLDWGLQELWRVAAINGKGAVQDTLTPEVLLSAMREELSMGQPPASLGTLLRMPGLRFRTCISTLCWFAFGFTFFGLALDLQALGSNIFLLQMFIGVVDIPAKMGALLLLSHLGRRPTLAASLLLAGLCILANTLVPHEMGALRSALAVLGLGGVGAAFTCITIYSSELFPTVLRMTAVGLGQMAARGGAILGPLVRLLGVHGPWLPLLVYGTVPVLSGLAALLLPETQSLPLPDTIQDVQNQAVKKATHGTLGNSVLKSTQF
Description: Uric Acid Uptake Assay. The series is classed as cell-based. As to conditions: HEK293/urat1 cells; C14 Uric Acid 40 μM; 10 minutes at room temperature. The source says:
Creation of Stable Cell Lines Expressing hURAT1 Transporter: Full-length human URAT1 gene (SLC22A12) was subcloned from plasmid pCMV6-XL5 (Origene) into eukaryotic expression plasmid pCMV6/Neo (Origene) using Not I restriction sites. Gene sequencing confirmed the sequence of hURAT1 as outlined in Genbank (Accession #NM_144585.2). HEK293 human embryonic kidney cells (ATCC#CRL-1573) were propagated in EMEM tissue culture medium as described by ATCC in an atmosphere of 5% CO2 and 95% air. Transfections of HEK293 cells with the pCMV6/Neo/URAT1 construct were performed using L2000 transfection reagent (Invitrogen) as described by the manufacturer. After 24 h the transfected cells were split into 10 cm tissue culture plates and grown for 1 day after which the medium was replaced with fresh growth medium containing G418 (Gibco) at 0.5 mg/ml final concentration. Drug-resistant colonies were selected after approximately 8 days and then tested for ^14C-uric acid transport activity. The HEK293/urat1 cells are plated on Poly-D-Lysine Coated 96-well Plates at a density of 75,000 cells per well.
Cells were grown overnight (20-26 hours) at 37° C. in an incubator. Plates were allowed to come to room temperature and media was washed out with one wash of […] of Wash Buffer (125 mM Na Gluconate, 10 mM Hepes ph 7.3). Compound or vehicle is added in assay buffer with C14 Uric Acid for a final concentration of 40 μM Uric Acid with a specific activity of 54 mCi/mmol. Assay Buffer is 125 mM Sodium Gluconate, 4.8 mM Potassium Gluconate, 1.2 mM Potassium phosphate, monobasic, 1.2 mM magnesium sulfate, 1.3 mM Ca Gluconate, 5.6 mM Glucose, 25 mM HEPES, pH 7.3. Plates were incubated at room temperature for 10 minutes then washed 3 times with 50 μl Wash Buffer and 3 times with 250 μl Wash Buffer. Microscint 20 Scintillation Fluid was added and plates were incubated overnight at 45° C. to equilibrate. Plates are then read on the TopCount Plate Reader and an EC50 value generated. (See Enomoto et al, Nature, 2002, 417, 447-451 and Anzai et al, J. Biol. Chem., 2004, 279, 45942-45950.).
Compounds prepared as described herein, were examined according to the procedure described above and EC50 values generated. […] (N/A means data not available).

Series [3] is described as follows: In vitro metabolic stability in human liver microsomes. As to conditions: 1 uM test compound, 1 mg/mL HLM, 1 mM NADPH, 30 minute incubation at 37° C. It is filed as in vitro ADME. The protocol: (§1) In vitro metabolic stability was assessed in rat and human liver microsomes (RLM/HLM). The incubation mixer contained the following: 1 uM test compound, 1 mg/mL HLM/RLM, 100 mM potassium phosphate buffer at pH 7.4, 1 mM NADPH and 5 mM MgCl2. This mixture was preincubated for 3 min before the 30 minute incubation at 37° C. The reaction was initiated with the addition of NADPH and terminated by the addition of equal volume of acetonitrile with internal standard. Incubation samples without NADPH were used as control samples. After vortexing and centrifugation, the supernatant was injected onto LC-MS/MS for quantitation.
In general terms: Liver microsomes are vesicles of endoplasmic reticulum, rich in cytochrome P450 enzymes.

Series [4] can be described thus: In vitro metabolic stability in rat liver microsomes. The series is classed as in vitro ADME. As to conditions: 1 uM test compound, 1 mg/mL RLM, 1 mM NADPH, 30 minute incubation at 37° C. The protocol: as §1
The nature of series [5]: physchem. As to conditions: for Solubility: 22° C., 24 hours. Here is the method:
When it appeared the saturation point was being reached, addition was stopped, and the eppendorf vial was shaken at a constant speed of 1000 rpm at 22° C. for 24 hours. The tubes were then centrifuged for 5 minutes at 10-15,000 rpm, and checked for precipitation. Samples were diluted with acetonitrile/water, (1/1) (or iso-propyl alcohol for hexane) and analyzed by HPLC against known standards.

The mark [6] stands for this setting: 300 mg b.i.d. oral, Day 3, n = 6, serum.
Where [7] appears, read: 300 mg b.i.d. oral, Day 7, n = 6, serum.
Setting [8] is: 300 mg b.i.d. oral, Day 14, n = 6, serum.
Setting [9] is: 300 mg b.i.d. oral, Follow up, n = 6, serum.
[10] abbreviates: 500 mg b.i.d. oral, Day 7, n = 6, serum.
The mark [11] stands for this setting: 500 mg b.i.d. oral, Day 14, n = 6, serum.
[12] abbreviates: 500 mg b.i.d. oral, Follow up, n = 6, serum.

In the case of `O=C(CSc1nnc(Br)n1-c1ccc(C2CC2)c2ccccc12)Nc1ccc(C(=O)[O-])cc1Cl.[K+]` [4-(2-(5-bromo-4-(4-cyclopropylnaphthalen-1-yl)-4H-1,2,4-triazol-3-ylthio)acetamido)-3-chlorobenzoic acid, potassium salt], the “Uric acid (μmol/L) MEAN” value in series [1] (setting [6]) is -100.3229 µmol/L; in series [1] (setting [7]) it was -126.2959 µmol/L; in series [1] (setting [8]), -121.2401 µmol/L; in series [1] (setting [9]) it was -2.2801 µmol/L; in series [1] (setting [10]), -127.6837 µmol/L; in series [1] (setting [11]), -111.8224 µmol/L. The “Uric acid (μmol/L) MEAN” value in series [1] (setting [12]) is 27.2617 µmol/L. For the same compound, the “Uric acid (μmol/L) MEDIAN” value in series [1] (setting [6]) was -101.4134 µmol/L; in series [1] (setting [7]) it was -119.8522 µmol/L; in series [1] (setting [8]), -104.9822 µmol/L; in series [1] (setting [9]) it was 0.8922 µmol/L; in series [1] (500 mg b.i.d. oral, Day 3, n = 6, serum), -112.1198 µmol/L; in series [1] (setting [10]), -144.2390 µmol/L. In addition, the “Uric acid (μmol/L) MEDIAN” value was -124.9080 µmol/L in series [1] (setting [11]) and 27.3608 µmol/L in series [1] (setting [12]).
Usually EC50 stands for the concentration giving half of the maximal effect. Consider `CC(C)(Sc1nnc(Br)n1-c1ccc(C2CC2)c2ccccc12)C(=O)O` [Example 3, 2-(5-Bromo-4-(4-cyclopropylnaphthalen-1-yl)-4H-1,2,4-triazol-3-ylthio)-2-methylpropanoic acid], for which the EC50 in series [2] is 1 to 1000 nM. Moreover, the “Liver Microsome Stability % Remaining Human” value in series [3] stood at 97 ± 2%. Besides, the “Liver Microsome Stability % Remaining Rat” value in series [4] was determined as 98 ± 0.1%.
The term solubility denotes how much of the substance goes into solution per volume. Higher therefore signals a readily soluble substance. For `O=C(O)CSc1nnc(Br)n1-c1ccc(C2CC2)c2ccccc12` [Example 104, Sodium 2-(5-bromo-4-(4-cyclopropylnaphthalen-1-yl)-4H-1,2,4-triazol-3-ylthio)acetate], in series [5] (22 °C, pH 4.85, water, thermodynamic from solid, Solubility (mg/mL)), the solubility at 24 h amounted to 49200 µg/mL.
One may read the Solubility as how much of the substance goes into solution per volume. Read a low Solubility as little dissolved substance. Take `O=C(O)CSc1nnc(Br)n1-c1ccc(C2CC2)c2ccccc12` [Piperazine salt, 2-(5-bromo-4-(4-cyclopropylnaphthalen-1-yl)-4H-1,2,4-triazol-3-ylthio)acetate]: the “Solubility” value in series [5] (Acetone) was 260 µg/mL; in series [5] (DMSO) it was ~54000 µg/mL; in series [5] (EtOAc) it was 55 µg/mL; in series [5] (Ethanol), 9100 µg/mL; in series [5] (IPA) it was 1600 µg/mL; in series [5] (PEG-400), 2400 µg/mL.
